Earlier results in patent publication US8206772B2, “Structured lipid compositions and methods of formulation thereof” (Kraft Foods Global Brands LLC, priority 2007, dated 2012).

Columns and labels:
[1] = rats, 5 percent and 10 percent of the diet
[2] = infants fed enriched milk

## CC(=O)OCC(COC(C)=O)OC(C)=O [triacetin]
[1]
  nutritional value / toxicity when fed: nutritious

## CCCC(=O)OCC(COC(=O)CCC)OC(=O)CCC [tributyrin]
[2]
  fat retained per day: 90.1 to 90.2%
[1]
  nutritional value / toxicity when fed: nutritious

## CC(C)CC(=O)OCC(COC(=O)CC(C)C)OC(=O)CC(C)C [triisovalerin]
[1]
  nutritional value / toxicity when fed: toxic
